Where a name gives a salt, the structure may show the parent alone.
Experiments:
[1] = system: AMPKα; assay: Measurement of AMPK-activation effect (AMPKα Thr172 phosphorylation immunoassay in MCF7 cells); type: cell-based, human; settings: 24 hours; for AMPK activation effect 10 uM (%) / AMPK activation effect 50 uM (%): relative to untreated cells
Procedure: MCF7 cells derived from human breast cancer cells (commercially available from the Korean Cell Line Bank) were used, and the AMPK (5′-AMP-activated protein kinase alpha)-activation effect of the biguanide derivative was confirmed using an AMPKα immunoassay kit (Invitrogen, Catalog No. KH00651).
MCF7 cells were cultured in a DMEM medium supplemented with 10% fetal bovine serum. Thereafter, the cultured MCF7 cells were put into a 6-well plate with approximately 5×10^5 cells per well and cultured in an incubator supplied with 5% CO2. Culture media were treated with the derivatives synthesized in the examples at contents of 5, 10 and 50 μM, and then cultured for 24 hours. Metformin hydrochloride was used as the control, and the culture media were treated with 0.05, 0.5, 1, 2, 5 and 10 mM metformin hydrochloride, and then tested in the same manner as described in the derivatives synthesized in the examples. Subsequently, the cells were lysed according to a method presented in the operation manual of the AMPKα immunoassay kit, and 20 μg of a cell lysate was then yielded through protein assay. Thereafter, the AMPK activation effect was obtained by determining the degree of phosphorylation of 172nd threonine residue (Thr172) of the AMPKα from the cell lysate according to the method presented in the operation manual of the AMPKα immunoassay kit. […] A curve graph showing AMPK activation according to the concentration of the treated compounds was plotted based on the obtained AMPKα activation results, the concentration (activation concentration 150, AC150) value of the compound whose AMPK activation reached 150% was calculated using a GraphPad Prism 5.0 program, and the degrees of AMPK activation were obtained when concentrations of the treated biguanide derivatives were 10 μM and 50 μM and the metformin hydrochloride was 50 μM.

[2] = system: HCT116 cells; assay: Measurement of effect of inhibiting cancer cell proliferation (MTT); type: cell-based; settings: Homo sapiens; for inhibition at 100 µM: HCT-116, 100 uM, 48 hours, read-out: Cell Growth Inhibition (%) at 100 uM; for GI50: HCT-116, 48 hours
From the text: HCT116 cells derived from human colorectal cancer (commercially available from the Korean Cell Line Bank) were used, and the effect of inhibiting cancer cell proliferation of the biguanide derivative was confirmed by measuring the concentration value (cell growth inhibition concentration, GIC50) at which cell growth was inhibited by 50% using a 3-(4,5-dimethylthiazol-2-yl)-2,5-[…] bromide (MTT) reagent.
First, HCT116 cells were put on a 96-well plate and cultured in a DMEM medium containing 10% fetal bovine serum for 16 hours so that the cellcount in each well was approximately 5,000. Subsequently, to obtain the GIC50 value of each compound, culture media were treated with 100 μM, 25 μM, 6.25 μM, 1.56 μM or 0.39 μM of the compound, and then cultured for 48 hours. At this time, some of the compounds were treated with 200 μM instead of 100 μM. Metformin hydrochloride was used as the control, and the culture media were treated with 25, 12.5, 2.5, 0.5, 0.1 mM metformin hydrochloride, and then tested in the same manner as described in the derivatives synthesized in the examples. In order to determine whether the cells survived after treatment with the compound, MTT was added to the culture media which were then cultured for another 3 hours. Formed formazane crystals were dissolved using dimethyl sulfoxide (DMSO), and the absorbance of the resulting solution was measured at 560 nm. After the 48-hours culture, the ratio of the cell count cultured on a well plate not treated with the compound to the living cell count on a well plate treated with the compounds synthesized in the examples was indicated as cell viability (%) according to each treated concentration. A cell viability curve graph was plotted and the concentration (GIC50) value of the compound at which the growth was inhibited by 50% was calculated to confirm the effect of inhibition of cancer cell proliferation. Also, the cell growth viability (%) when the concentration of the treated biguanide derivative and the metformin hydrochloride as the control were 100 uM was shown.

Row | GI50 [2] [µM] | melting point [°C] | Compound | AMPK activation effect 10 uM (%) [1] [%] | AMPK activation effect 50 uM (%) [1] [%] | AC150 (concentration at which AMPK activation reached 150%) [1] [µM] | inhibition at 100 µM [2] [%]
1 | 9.1 | 240 to 241 | Cl.N=C(NCc1ccc(Cl)cc1Cl)NC(=N)N1CCCCC1 [Example 53, N1-piperidine-N5-(2,4-dichloro)benzyl biguanide hydrochloride] | 238 | 831 | 3.5 | 63.7
2 | > 100 | – | CN1CCN(C(=N)NC(=N)NCc2ccc(OC(F)(F)F)cc2)CC1.Cl [Example 43, N1-(4-methyl)piperazine-N5-(4-trifluoromethoxy)benzyl biguanide hydrochloride] | 669 | 854 | 6.4 | 97.7
3 | 4.9 | 222 to 223 | Cl.N=C(NCc1ccc(Cl)cc1)NC(=N)N1CCCCCC1 [Example 33, N1-azepane-N5-(4-chloro)benzyl biguanide hydrochloride] | – | 443 | 1.2 | 25.3
4 | 21.1 | 219 to 221 | Cl.N=C(NCc1ccc(Cl)c(Cl)c1)NC(=N)N1CCCC1 [Example 54, N1-pyrrolidine-N5-(3,4-dichloro)benzyl biguanide hydrochloride] | 315 | – | 0.8 | 98
5 | – | 197 to 199 | Cl.N=C(NCc1cccnc1)NC(=N)N1CCCCC1 | – | – | – | –
6 | 39.3 | 260 to 261 | Cl.N=C(NCc1ccc(C(F)(F)F)cc1)NC(=N)N1CCC1 [Example 37, N1-azetidine-N5-(4-trifluoromethyl)benzyl biguanide hydrochloride] | 100 | 107 | 24.2 | 23.5
7 | > 100 | 242 to 243 | Cl.N=C(NCc1ccco1)NC(=N)N1CCCC1 [Example 22, N1-pyrrolidine-N5-(furan-2-ylmethyl)biguanide hydrochloride] | 101 | 293 | 18.3 | 43.9
8 | 70.5 | 241 to 243 | Cc1ccc(CNC(=N)NC(=N)N2CCCCC2)cc1.Cl [Example 27, N1-piperidine-N5-(4-methyl)benzyl biguanide hydrochloride] | 435 | 947 | 2.3 | 64.9
9 | > 100 | 200 to 201 | Cl.N=C(NC(=N)N1CCCC1)NC1CCCC1 [Example 13, N1-pyrrolidine-N5-cyclopentyl biguanide hydrochloride] | 131 | 375 | 11.9 | 41.9
10 | 23.2 | 261 to 262 | Cl.N=C(NCc1ccc(Br)cc1)NC(=N)N1CCCCC1 [Example 35, N1-piperidine-N5-(4-bromo)benzyl biguanide hydrochloride] | 140 | 150 | 1.1 | 53.8
11 | 43.2 | 235 to 237 | Cl.N=C(NCCc1ccccc1)NC(=N)N1CCCCC1 [Example 58, N1-piperidine-N5-(phenethyl)biguanide hydrochloride] | 167 | 388 | 6.4 | 32.3
12 | – | 171 to 172 | Cl.N=C(NCc1cccc(F)c1)NC(=N)N1CCCCC1 [Example 29, N1-piperidine-N5-(3-fluoro)bezyl biguanide hydrochloride] | – | 131 | >50 | –
13 | > 100 | 213 to 214 | COc1ccc(CNC(=N)NC(=N)N2CCCCC2)cc1.Cl [Example 28, N1-piperidine-N5-(4-methoxy)benzyl biguanide hydrochloride] | 258 | 628 | 3.9 | 28.3
14 | > 100 | 224 to 225 | Cl.N=C(NC(=N)N1CCCCCC1)NC1CCCC1 [Example 15, N1-azepane-N5-cyclopentyl biguanide hydrochloride] | 174 | 291 | 7.0 | 27.9
15 | > 100 | 250 to 251 | Cl.N=C(NCc1ccc(F)cc1)NC(=N)N1CCCCC1 [Example 30, N1-piperidine-N5-(4-fluoro)benzyl biguanide hydrochloride] | 143 | 278 | 13.1 | 47
16 | > 100 | 214 to 215 | Cl.N=C(NC(=N)N1CCCCC1)NC1CCCCC1 [Example 16, N1-piperidine-N5-cyclohexyl biguanide hydrochloride] | 167 | 486 | 8.0 | 49.1
17 | 2850 | – | CN(C)C(=N)N=C(N)N [Metformin hydrochloride, reference compound] | – | 130 | 188.3 | 1.8
18 | > 100 | 201 to 203 | Cl.N=C(NCc1cccnc1)NC(=N)N1CCCC1 [Example 20, N1-pyrrolidine-N5-(pyridine-3-ylmethyl)biguanide hydrochloride] | 71 | 89 | >50 | 9.2
19 | 28 | – | Cl.N=C(NCc1cccc2ccccc12)NC(=N)N1CCCCC1 [Example 25, N1-piperidine-N5-(naphthalene-1-yl)methyl biguanide hydrochloride] | – | 428 | 8.0 | 96.6
20 | – | 156 to 158 | Cl.N=C(NCc1ccccc1)NC(=N)N1CCCCC1 | – | – | – | –
21 | 16.2 | – | Cl.N=C(NCc1ccc(C(F)(F)F)cc1)NC(=N)N1CCCCC1 [Example 39, N1-piperidine-N5-(4-trifluoromethyl)benzyl biguanide hydrochloride] | 476 | 615 | 0.9 | 78.9
